In US11571423B2, “Small molecule modulators of human sting” (Curadev Pharma Limited, priority 2017, dated 2023):
pEC50: −log10 of the molar value. Structures can show the parent of a compound that is named as a salt. Where two headings read alike, the source gives them in different places.

How the values were obtained:
[1] = molecular target: hSTING(R232) (Homo sapiens, UniProt Q86WV6, H232R); test: Luciferase reporter assay in HEK293T-hSTING-Luciferase cells, R232 (wild type) human STING; type: cell-based; conditions: 20 hr stimulation
How it was run: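 After 20 hr compound stimulation of 5×10^5 cells, secreted luciferase in the supernatant was measured by luminescence; values are fold-induction over baseline and EC50. The line is a clonal HEK293T stably carrying a STING plasmid (pUNO-1) and a luciferase reporter under five tandem ISREs fused to an ISG54 promoter.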

[2] = molecular target: hSTING(H232) (Homo sapiens, UniProt Q86WV6); test: Luciferase reporter assay in HEK293T-hSTING-Luciferase cells, H232/REF polymorph; type: cell-based; conditions: H232/REF polymorph of human STING, EC50 range class
Excerpt: (§1) Stable Cell Line Generation • a) Stable STING expressing cells—Stable HEK293T STING-expressing cell lines were generated using plasmids purchased from Invivogen, CA, USA, that contain STING cDNA cloned into the pUNO-1 vector under hEF1-HTLV promoter and containing the Blasticidin selection cassette. The plasmids hSTING(R232), hSTING(H232), hSTING(HAQ) were directly procured from Invivogen while hSTING (AQ) and hSTING (Q) were derived from hSTING(HAQ) and hSTING (R232) plasmids respectively by using a PCR based site directed mutagenesis method. These vectors were individually transfected into HEK293T cells using Lipofectamine (Invitrogen) and transfected cells were selected under Blasticidin selection. These transfected cells were further subjected to clonal selection using the limiting dilution method to obtain clonally pure populations of HEK cells transfected with each of the above mentioned human STING variants. Only those clones were selected in which ligand independent activation of STING was minimal. • b) Stable Luciferase reporter gene expressing cells—Stable HEK293T Luciferase reporter gene expressing cell lines were generated using pCDNA4 plasmids under an IRF-inducible promoter. This promoter is comprised of five tandem interferon-stimulated response elements (ISRE) fused to an ISG54 minimal promoter. This vector was transfected into HEK293T cells using Lipofectamine (Invitrogen) and transfected cells were selected under Zeocin selection. These transfected cells were further subjected to clonal selection using the limiting dilution method to obtain clonally pure populations of HEK cells transfected the Luciferase reporter construct. Only those clones were selected in which ligand independent induction of luciferase was minimal.
(§2) 5×10^5 clonally selected HEK293T-hSTING-Luciferase cells were seeded in 384-well plates in growth medium and stimulated with novel compounds. After 20 hr of stimulation supernatant were removed and secretary reporter gene activity were measured using the Quanti-Luc detection system (Invivogen) on a Spectramax i3X luminometer.
(§3) In the tables below, EC50 value ranges for exemplary compounds are given.
(§4) Single nucleotide polymorphisms of human STING have been described, which can affect the functional potency of compounds that modulate the activity of the STING protein (see Yi et. al., PLoS One, October 2013, 8(10), e77846). The 5 major polymorphisms of human STING are shown in FIG. 1, with their prevalence in human populations indicated.
(§5) The tables below show the potency of selected compounds of the invention against the most common polymorphisms.

[3] = molecular target: hSTING(HAQ) (Homo sapiens, UniProt Q86WV6, G230A/H232R/R293Q/R71H); test: Luciferase reporter assay in HEK293T-hSTING-Luciferase cells, HAQ polymorph; type: cell-based; conditions: HAQ polymorph of human STING, EC50 range class
Excerpt: as §1, §2, §3, §4, §5

[4] = test system: IRF pathway; test: Reporter gene expression assay in THP1-Dual cells, IRF axis (secreted Lucia luciferase); type: cell-based, human; conditions: Homo sapiens, 20 hr stimulation, EC50 range class, read-out: THP-IRF activity
Experimental: (§6) THP1-Dual™ cells (Invivogen) were derived from the human THP-1 monocyte cell line by stable integration of two inducible reporter constructs. As a result, THP1-Dual™ cells allow the simultaneous study of the NF-κB pathway, by monitoring the activity of secreted SEAP, and the IRF pathway, by assessing the activity of a secreted luciferase (Lucia). 5×10^5 THP1-Dual™ cells were seeded in 384-well plates in growth medium and stimulated with novel compounds. After 20 hr of stimulation supernatants were removed and reporter proteins were readily measured in the cell culture supernatant using QUANTI-Blue™ (Invivogen), a SEAP detection reagent, and QUANTI-Luc™ (Invivogen), a luciferase detection reagent on a Spectramax i3X luminometer.
(§7) EC50 value ranges for exemplary compounds tested in the above assay are given.

[5] = test system: NF-κB pathway; test: Reporter gene expression assay in THP1-Dual cells, NFkB axis (secreted SEAP); type: cell-based, human; conditions: Homo sapiens, 20 hr stimulation, EC50 range class, read-out: THP-NFκB activity
Experimental: as §6, §7

[6] = molecular target: cynomolgus monkey STING protein (Macaca fascicularis, UniProt A0A2R3XZA6); test: Luciferase reporter assay, cynomolgus monkey STING overexpressed in HEK293T cells; type: cell-based
Experimental: as §2, §3
Selected compounds were further tested against cynomolgus monkey STING protein overexpressed in HEK293T cells.

[7] = read-out: R232 human activity (EC50 range)
[8] = cynomolgus monkey STING overexpressed in HEK293T cells, read-out: Cynomolgus monkey STING activity (EC50 range)

hSTING(R232), sequence (Q86WV6 whole entry H232R, the tested form may be a part): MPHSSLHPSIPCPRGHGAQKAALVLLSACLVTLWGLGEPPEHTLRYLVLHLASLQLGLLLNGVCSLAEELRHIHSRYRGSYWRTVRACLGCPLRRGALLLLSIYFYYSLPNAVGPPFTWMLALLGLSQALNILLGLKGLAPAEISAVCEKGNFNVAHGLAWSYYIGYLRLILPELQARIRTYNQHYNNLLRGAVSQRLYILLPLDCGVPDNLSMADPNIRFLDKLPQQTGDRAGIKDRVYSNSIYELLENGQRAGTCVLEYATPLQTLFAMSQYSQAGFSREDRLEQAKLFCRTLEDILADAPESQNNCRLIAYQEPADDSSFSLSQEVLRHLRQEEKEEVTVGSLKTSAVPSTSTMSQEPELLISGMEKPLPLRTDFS
hSTING(HAQ), sequence (Q86WV6 whole entry R71H/G230A/H232R/R293Q): as the sequence (Q86WV6 whole entry H232R, the tested form may be a part) above, with R71H, G230A, R293Q counted along it
cynomolgus monkey STING protein, sequence (A0A2R3XZA6 entry or part of it): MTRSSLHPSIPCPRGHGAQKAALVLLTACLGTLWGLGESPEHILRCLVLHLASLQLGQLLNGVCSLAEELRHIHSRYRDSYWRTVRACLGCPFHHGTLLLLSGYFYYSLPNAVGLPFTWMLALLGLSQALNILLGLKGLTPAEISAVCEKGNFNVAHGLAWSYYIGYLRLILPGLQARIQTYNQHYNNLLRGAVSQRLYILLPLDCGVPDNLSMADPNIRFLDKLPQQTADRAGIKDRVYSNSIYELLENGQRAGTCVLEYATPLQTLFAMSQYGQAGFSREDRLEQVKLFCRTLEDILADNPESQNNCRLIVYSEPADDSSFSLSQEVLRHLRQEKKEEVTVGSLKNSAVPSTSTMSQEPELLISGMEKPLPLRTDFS
hSTING(H232), sequence (Q86WV6 whole entry): as the sequence (Q86WV6 whole entry H232R, the tested form may be a part) above, with R232H counted along it

pEC50 [1, 7] | pEC50 [2] | pEC50 [3] | pEC50 [4] | pEC50 [5] | pEC50 [6, 8] | Structure (SMILES) | pEC50 ([1]; R232 human activity (EC50 range)) | pEC50 [6]
> 6.00 | 5.00 to 6.00 | 5.00 to 6.00 | 5.00 to 6.00 | 5.00 to 6.00 |  | C[C@H]1c2ccc(C(=O)NCc3c(F)cc(F)cc3F)cc2N(Cc2cc(CO)ccc2F)C(=O)N1C (stereo in doubt) [Example 268, 1-(2-fluoro-5-(hydroxymethyl)benzyl)-3,4-dimethyl-2-oxo-N-(2,4,6-trifluorobenzyl)-1,2,3,4-tetrahydroquinazoline-7-carboxamide] |  | 
5.00 to 6.00 | 5.00 to 6.00 | 5.00 to 6.00 | 5.00 to 6.00 | 5.00 to 6.00 |  | Cc1ncc(CN2C(=O)N(C)Cc3ccc(C(=O)NCc4c(F)cc(F)cc4F)cc32)s1 [Example 20, 3-methyl-1-((2-methylthiazol-5-yl)methyl)-2-oxo-N-(2,4,6-trifluorobenzyl)-1,2,3,4-tetrahydroquinazoline-7-carboxamide] |  | 
> 6.00 | 5.00 to 6.00 | 5.00 to 6.00 | < 5.00 | 5.00 to 6.00 |  | Cc1cccc(-c2nc(CN3C(=O)N(C)Cc4ccc(C(=O)NCc5c(F)cc(F)cc5F)cc43)c(C)o2)c1 [Example 38, 3-methyl-1-((5-methyl-2-(m-tolyl)oxazol-4-yl)methyl)-2-oxo-N-(2,4,6-trifluorobenzyl)-1,2,3,4-tetrahydroquinazoline-7-carboxamide] |  | 
5.00 to 6.00 | < 5.00 | < 5.00 | < 5.00 | < 5.00 |  | CN1Cc2ccc(C(=O)NCc3c(F)cc(F)cc3F)cc2N(Cc2c(F)cccc2C#N)C1=O [Example 39, 1-(2-cyano-6-fluorobenzyl)-3-methyl-2-oxo-N-(2,4,6-trifluorobenzyl)-1,2,3,4-tetrahydroquinazoline-7-carboxamide] |  | 
5.00 to 6.00 | 5.00 to 6.00 | 5.00 to 6.00 | 5.00 to 6.00 | 5.00 to 6.00 |  | Cc1cc(CN2C(=O)N(C)Cc3ccc(C(=O)NCc4c(F)cc(F)cc4F)cc32)on1 [Example 54, 3-methyl-1-((3-methylisoxazol-5-yl)methyl)-2-oxo-N-(2,4,6-trifluorobenzyl)-1,2,3,4-tetrahydroquinazoline-7-carboxamide] |  | 
> 6.00 | > 6.00 | > 6.00 | 5.00 to 6.00 | 5.00 to 6.00 |  | CC1c2ncc(C(=O)NCc3c(F)cc(F)cc3F)cc2N(Cc2c(F)cccc2Cl)C(=O)N1C (stereo not drawn) [Example 148, 1-(2-Chloro-6-fluorobenzyl)-3,4-dimethyl-2-oxo-N-(2,4,6-trifluorobenzyl)-1,2,3,4-tetrahydropyrido[3,2-d]pyrimidine-7-carboxamide] |  | 
> 6.00 | > 6.00 | > 6.00 | > 6.00 | > 6.00 |  | COc1cccc(F)c1CN1C(=O)N(C)C(C)c2ccc(C(=O)NCc3c(F)cc(F)cc3F)cc21 (stereo not drawn) [Example 153, 1-(2-fluoro-6-methoxybenzyl)-3,4-dimethyl-2-oxo-N-(2,4,6-trifluorobenzyl)-1,2,3,4-tetrahydroquinazoline-7-carboxamide] |  | 
 | > 6.00 | > 6.00 | > 6.00 | > 6.00 |  | CC1c2ccc(C(=O)NCc3c(F)cc(F)cc3F)cc2N(Cc2c(F)cccc2Br)C(=O)N1C (stereo not drawn) [Example 193, 1-(2-bromo-6-fluorobenzyl)-3,4-dimethyl-2-oxo-N-(2,4,6-trifluorobenzyl)-1,2,3,4-tetrahydroquinazoline-7-carboxamide] |  | 
> 6.00 |  |  |  |  | < 5.00 | C[C@H]1c2ccc(C(=O)NCc3c(F)cc(F)cc3F)cc2N(Cc2c(F)cc(F)cc2OCCCO)C(=O)N1C [Example 275, (S)-1-(2,4-difluoro-6-(3-hydroxypropoxy)benzyl)-3,4-dimethyl-2-oxo-N-(2,4,6-trifluorobenzyl)-1,2,3,4-tetrahydroquinazoline-7-carboxamide] |  | 
> 6.00 |  |  |  |  | 5.00 to 6.00 | C[C@H]1c2ccc(C(=O)NCc3c(F)cc(F)cc3F)cc2N(Cc2cc(OCCO)cc(F)c2F)C(=O)N1C [Example 282, (S)-1-(2,3-difluoro-5-(2-hydroxyethoxy)benzyl)-3,4-dimethyl-2-oxo-N-(2,4,6-trifluorobenzyl)-1,2,3,4-tetrahydroquinazoline-7-carboxamide] |  | 
> 6.00 |  |  |  |  | > 6.00 | C[C@H]1c2ccc(C(=O)NCc3c(F)cc(F)cc3F)cc2N(Cc2c(F)cc(N)cc2F)C(=O)N1C [Example 286, (S)-1-(4-amino-2,6-difluorobenzyl)-3,4-dimethyl-2-oxo-N-(2,4,6-trifluorobenzyl)-1,2,3,4-tetrahydroquinazoline-7-carboxamide] |  | 
> 6.00 |  |  |  |  | 5.00 to 6.00 | CC(O)c1ccc(F)c(CN2C(=O)N(C)[C@@H](C)c3ccc(C(=O)NCc4c(F)cc(F)cc4F)cc32)c1F (stereo partly drawn) [Example 289, (4S)-1-(2,6-difluoro-3-(1-hydroxyethyl)benzyl)-3,4-dimethyl-2-oxo-N-(2,4,6-trifluorobenzyl)-1,2,3,4-tetrahydroquinazoline-7-carboxamide] |  | 
> 6.00 |  |  |  |  | > 6.00 | C[C@H]1c2ccc(C(=O)NCc3c(F)cc(F)cc3F)cc2N(Cc2c(F)cc(OCCN3CCOCC3)cc2F)C(=O)N1C [Example 291, (S)-1-(2,6-difluoro-4-(2-morpholinoethoxy)benzyl)-3,4-dimethyl-2-oxo-N-(2,4,6-trifluorobenzyl)-1,2,3,4-tetrahydroquinazoline-7-carboxamide] |  | 
> 6.00 |  |  |  |  | > 6.00 | C[C@H]1c2ccc(C(=O)NCc3c(F)cc(F)cc3F)cc2N(Cc2c(F)cc(OCCCC(=O)O)cc2F)C(=O)N1C [Example 294, (S)-4-(4-((3,4-dimethyl-2-oxo-7-((2,4,6-trifluorobenzyl)carbamoyl)-3,4-dihydroquinazolin-1(2H)-yl)methyl)-3,5-difluorophenoxy)butanoic acid] |  | 
> 6.00 |  |  |  |  | > 6.00 | C[C@H]1c2ccc(C(=O)NCc3c(F)cc(F)cc3F)cc2N(Cc2c(F)cncc2F)C(=O)N1C [Example 295, (S)-1-((3,5-difluoropyridin-4-yl)methyl)-3,4-dimethyl-2-oxo-N-(2,4,6-trifluroobenzyl)-1,2,3,4-tetrahydroquinazoline-7-carboxamide] |  | 
 |  |  |  |  |  | CNCCN(C)C(=O)Oc1ccc(F)c(CN2C(=O)N(C)[C@@H](C)c3ccc(C(=O)NCc4c(F)cc(F)cc4F)cc32)c1Cl [Example 300, (S)-2-chloro-3-((3,4-dimethyl-2-oxo-7-((2,4,6-trifluorobenzyl)carbamoyl)-3,4-dihydroquinazolin-1(2H)-yl)methyl)-4-fluorophenyl-methyl(2-(methylamino)ethyl)carbamate hydrochloride] | > 6.00 | > 6.00

Structure (SMILES) | pEC50 [1, 7] | pEC50 [2] | pEC50 [3] | pEC50 [4] | pEC50 [5] | pEC50 [6, 8] | pEC50 ([1]; R232 human activity (EC50 range)) | pEC50 [6]
C[C@H]1c2ccc(C(=O)NCc3c(F)cc(F)cc3F)cc2N(Cc2c(F)cc(OCCN)cc2Cl)C(=O)N1C [Example 299, (S)-1-(4-(2-aminoethoxy)-2-chloro-6-fluorobenzyl)-3,4-dimethyl-2-oxo-N-(2,4,6-trifluorobenzyl)-1,2,3,4-tetrahydroquinazoline-7-carboxamide hydrochloride] | > 6.00 |  |  |  |  | < 5.00 |  | 
